“Also recorded” adds a separate entry of the source.
What was measured:
[1] = system: citrus red mite (Panonychus citri); assay: Test Example 1: spray application to satsuma mandarin infested with citrus red mite, greenhouse; type: in vivo; settings: for Number of adult citrus red mite 7th day / Number of adult citrus red mite 12th day / Number of adult citrus red mite 18th day / Number of adult citrus red mite 26th day: 150 ppm active ingredient, sprayed; for Number of adult citrus red mite 7th day: 10% water-based suspension concentrate, 7th day after application; for Number of adult citrus red mite 12th day: 12th day after application; for Number of adult citrus red mite 18th day: 18th day after application; for Number of adult citrus red mite 26th day: 26th day after application; for pesticidal effects (in words): 150 ppm, citrus red mite on satsuma mandarin, conclusion from Table 1; for Number of adult citrus red mite Before application: baseline count before application, all leaves of satsuma mandarin tree
Source text: A 10% water-based suspension concentrate of each of compound D and compound E was dispersed in water to obtain a chemical solution wherein the active ingredient is 150 ppm. Such a chemical solution was applied to satsuma mandarin (Citrus unshiu Marc.) infested with citrus red mite (Panonychus citri) (planted in a plastic pot having a diameter of 24 cm and a height of 29 cm) by means of a sprayer and then left to stand in a greenhouse. Before the application and on the 7th day, 12th day, 18th day and 26th day after the application, the number of adult citrus red mite on all leaves of the satsuma mandarin tree was counted.

[2] = system: two-spotted spider mite (Tetranychus urticae); assay: Test Example 2: spray application to eggplant infested with two-spotted spider mite, greenhouse; type: in vivo; settings: for Number of adult two-spotted spite mite 5th day / Number of adult two-spotted spite mite 9th day / Number of adult two-spotted spite mite 12th day / Number of adult two-spotted spite mite 15th day: 150 ppm active ingredient, sprayed; for Number of adult two-spotted spite mite 5th day: 10% water-based suspension concentrate in water with 0.02% spreader, 5th day after application; for Number of adult two-spotted spite mite 9th day: 9th day after application; for Number of adult two-spotted spite mite 12th day: 12th day after application; for Number of adult two-spotted spite mite 15th day: 15th day after application; for pesticidal effects (in words): 150 ppm, two-spotted spider mite on eggplant, conclusion from Table 2; for Number of adult two-spotted spite mite Before application: baseline count before application, on the eggplant
Source text: A 10% water-based suspension concentrate of each of compounds H and G was dispersed in water containing 0.02% of a spreader (Shinrino, manufactured by NIHON NOHYAKU CO., LTD.) to obtain a chemical solution wherein the active ingredient was 150 ppm. Such a chemical solution was applied to an eggplant (Solanum melongena) infested with two-spotted spider mite (Tetranychus urticae) (planted in a plastic pot having a diameter of 17 cm and a height of 19 cm) by means of a sprayer, and then left to stand in a greenhouse. Before the application and on the 5th day, 9th day, 12th day and 15th day after the application, the number of adult two-spotted spider mite on the eggplant was counted.

Row | SMILES | Number of adult citrus red mite 7th day [1] | Number of adult citrus red mite 12th day [1] | Number of adult citrus red mite 18th day [1] | Number of adult citrus red mite 26th day [1] | pesticidal effects (in words) [1] | Number of adult citrus red mite Before application [1] | Number of adult two-spotted spite mite 5th day [2] | Number of adult two-spotted spite mite 9th day [2] | Number of adult two-spotted spite mite 12th day [2] | Number of adult two-spotted spite mite 15th day [2] | pesticidal effects (in words) [2] | Number of adult two-spotted spite mite Before application [2]
1 | CSC(=O)OC(=C(C#N)c1ccc(C(C)(C)C)cc1)c1ccccc1C(F)(F)F [Compound E, α-(4-tert-Butylphenyl)-β-[(methylthio)carbonyloxy]-β-(2-trifluoromethylphenyl)acrylonitrile] | 0 | 2 | 1 | 4 | excellent pesticidal effects; also recorded: superior pesticidal effects | 106 |  |  |  |  |  | 
2 | CSC(=O)OC(=C(C#N)c1ccc(C(C)(C)C)cc1)c1ccccc1C(F)(F)F [Compound D, α-(4-tert-Butylphenyl)-β-[(methylthio)carbonyloxy]-β-(2-trifluoromethylphenyl)acrylonitrile] | 0 | 4 | 2 | 65 | excellent pesticidal effects | 111 |  |  |  |  |  | 
3 | CSC(=S)OC(=C(C#N)c1ccc(Cl)cc1)c1ccccc1C(F)(F)F [H, α-(4-chlorophenyl)-β-(S-methyldithiocarbonyloxy)-β-(2-trifluoromethylphenyl)acrylonitrile] |  |  |  |  |  |  | 0 | 1 | 18 | 42 | excellent pesticidal effects | 111
4 | CSC(=S)OC(=C(C#N)c1ccc(Cl)cc1)c1ccccc1C(F)(F)F [Compound G, α-(4-Chlorophenyl)-β-(S-methyldithiocarbonyloxy)-β-(2-trifluoromethylphenyl)acrylonitrile] |  |  |  |  |  |  | 1 | 0 | 2 | 4 | excellent pesticidal effects; also recorded: superior pesticidal effects | 106
